# Results taken from patent publication US20120071536A1, “N-[(2-AZABICYCLO[2.1.1]HEX-1-YL)-ARYL-METHYL]-BENZAMIDE DERIVATIVES, PREPARATION THEREOF, AND THERAPEUTIC USE THEREOF” (SANOFI, priority 2009, published 2012).
# Structures can show the parent of a compound that is named as a salt.
row,SMILES,melting point [°C]
1,"CCS(=O)(=O)c1cc(C(=O)NC(c2ccccc2)C23CC(CN2)C3)c(OC)cc1Cl (racemic) (as salt: HCl) [Compound 15, N-[(2-Azabicyclo[2.1.1]hex-1-yl)(phenyl)methyl]-4-chloro-5-(ethanesulphonyl)-2-methoxybenzamide]",232 to 233
2,"CCN1CC2CC1(C(NC(=O)c1cccc(C(F)(F)F)c1Cl)c1ccccc1)C2 (single isomer, unassigned; (+)) (as salt: HCl) [Compound 26, (+)-2-Chloro-N-[(2-ethyl-2-azabicyclo[2.1.1]hex-1-yl)(phenyl)methyl]-3-(trifluoromethyl)benzamide]",257 to 259
3,"C=CCN1CC2CC1(C(NC(=O)c1cc(Br)c(Cl)cc1N)c1ccccc1)C2 (racemic) [Compound 20, N-[(2-Allyl-2-azabicyclo[2.1.1]hex-1-yl)(phenyl)methyl]-2-amino-5-bromo-4-chloro-benzamide]",66 to 67
4,"O=C(NC(c1cccc(C(F)(F)F)c1)C12CC(CN1)C2)c1cccc(C(F)(F)F)c1Cl (racemic) (as salt: HCl) [Compound 4, N-[(2-Azabicyclo[2.1.1]hex-1-yl)[3-(trifluoromethyl)phenyl]methyl]-2-chloro-3-(trifluoromethyl)benzamide]",214 to 217
5,CCN1CC2CC1(C(NC(=O)c1cccc(C(F)(F)F)c1Cl)c1ccccc1)C2.Cl (racemic),152 to 155
6,CC(C)(O)CN1CC2CC1(C(NC(=O)c1c(Cl)ccc(C(F)(F)F)c1Cl)c1ccccc1)C2 (racemic) (as salt: HCl) [Compound 22],178.5 to 179
7,"COc1cccc(C(NC(=O)c2cccc(C(F)(F)F)c2Cl)C23CC(CN2)C3)c1 (racemic) (as salt: HCl) [Compound 3, N-[(2-Azabicyclo[2.1.1]hex-1-yl)(3-methoxyphenyl)methyl]-2-chloro-3-(trifluoro-methyl)benzamide]",143 to 144
8,"CCCN1CC2CC1(C(NC(=O)c1cc(Br)c(Cl)cc1N)c1ccccc1)C2 (racemic) (as salt: HCl) [Compound 21, 2-Amino-5-bromo-4-chloro-N-[(phenyl)(2-propyl-2-azabicyclo[2.1.1]hex-1-yl)methyl]-benzamide]",153 to 154
9,"Cc1ccc(F)c(C(=O)NC(c2ccccc2)C23CC(CN2)C3)c1Cl (racemic) [Compound 10, N-[(2-Azabicyclo[2.1.1]hex-1-yl)(phenyl)methyl]-2-chloro-6-fluoro-3-methylbenzamide]",123 to 124
10,"O=C(NC(c1ccc2ccccc2c1)C12CC(CN1)C2)c1cccc(C(F)(F)F)c1Cl (racemic) (as salt: HCl) [Compound 17, N-[(2-Azabicyclo[2.1.1]hex-1-yl)(naphth-2-yl)methyl]-2-chloro-3-(trifluoromethyl)-benzamide]",135 to 170
11,"CCc1ccccc1C(=O)NC(c1ccccc1)C12CC(CN1CC)C2 (racemic) (as salt: HCl) [Compound 31, 2-Ethyl-N-[(2-ethyl-2-azabicyclo[2.1.1]hex-1-yl)(phenyl)methyl]benzamide]",241 to 242
12,"O=C(NC(c1ccc(F)cc1)C12CC(CN1)C2)c1cccc(C(F)(F)F)c1Cl (racemic) [Compound 16, N-[(2-Azabicyclo[2.1.1]hex-1-yl)(4-fluorophenyl)methyl]-2-chloro-3-(trifluoromethyl)-benzamide]",172.5 to 173
13,"O=C(NC(c1ccccc1)C12CC(CN1Cc1ccccc1)C2)c1cccc(C(F)(F)F)c1Cl (racemic) (as salt: HCl) [Compound 33, N-[(2-Benzyl-2-azabicyclo[2.1.1]hex-1-yl)(phenyl)methyl]-2-chloro-3-(trifluoromethyl)-benzamide]",244 to 245.5
14,"Cc1cccc(C(NC(=O)c2c(Cl)ccc(C(F)(F)F)c2Cl)C23CC(CN2)C3)c1 (racemic) (as salt: HCl) [Compound 29, N-[(2-Azabicyclo[2.1.1]hex-1-yl)(m-tolyl)methyl]-2,6-dichloro-3-(trifluoromethyl)-benzamide]",146 to 147
15,"Cc1cccc(C)c1C(=O)NC(c1ccccc1)C12CC(CN1)C2 (racemic) (as salt: HCl) [Compound 27, N-[(2-Azabicyclo[2.1.1]hex-1-yl)(phenyl)methyl]-2,6-dimethylbenzamide]",273.5 to 274.5
16,"CCc1ccccc1C(=O)NC(c1ccccc1)C12CC(CN1)C2 (racemic) (as salt: HCl) [Compound 28, N-[(2-Azabicyclo[2.1.1]hex-1-yl)(phenyl)methyl]-2-ethylbenzamide]",264 to 265
17,"Nc1ccc(C(NC(=O)c2cccc(C(F)(F)F)c2Cl)C23CC(CN2)C3)cc1 (racemic) (as salt: HCl) [Compound 1, N-[(4-Aminophenyl)(2-azabicyclo[2.1.1]hex-1-yl)methyl]-2-chloro-3-(trifluoromethyl)-benzamide]",195 to 197
18,"CCN1CC2CC1(C(NC(=O)c1c(C)cccc1C)c1ccccc1)C2 (racemic) (as salt: HCl) [Compound 30, N-[(2-Ethyl-2-azabicyclo[2.1.1]hex-1-yl)(phenyl)methyl]-2,6-dimethylbenzamide]",212 to 214
19,"O=C(NC(c1ccccc1)C12CC(CN1CC1CC1)C2)c1cccc(C(F)(F)F)c1Cl (racemic) (as salt: HCl) [Compound 25, 2-Chloro-N-[(2-cyclopropylmethyl-2-azabicyclo[2.1.1]hex-1-yl)(phenyl)methyl]-3-(trifluoromethyl)benzamide]",240.5 to 241.5

# Now from value to compound:
row,melting point [°C],SMILES
1,159.5 to 160.5,"Cc1cccc(C(NC(=O)c2cccc(C(F)(F)F)c2Cl)C23CC(CN2)C3)c1 (racemic) (as salt: HCl) [Compound 2, N-[(2-Azabicyclo[2.1.1]hex-1-yl)(m-tolyl)methyl]-2-chloro-3-(trifluoromethyl)benzamide]"
2,160 to 170,"O=C(NC(c1ccccc1)C12CC(CN1)C2)c1cccc(C(F)(F)F)c1Cl (single isomer, unassigned; (+)) (as salt: HCl) [Compound 14, (+)-N-[(2-Azabicyclo[2.1.1]hex-1-yl)(phenyl)methyl]-2-chloro-3-(trifluoromethyl)-benzamide]"
3,80.5 to 81.5,"O=C(NC(c1ccccc1)C12CC(CN1)C2)c1c(Cl)ccc(C(F)(F)F)c1Cl (racemic) [Compound 8, N-[(2-Azabicyclo[2.1.1]hex-1-yl)(phenyl)methyl]-2,6-dichloro-3-(trifluoromethyl)-benzamide]"
4,200 to 201,"Cc1c(C(F)(F)F)ccc(Cl)c1C(=O)NC(c1ccccc1)C12CC(CN1)C2 (racemic) (as salt: HCl) [Compound 32, N-[(2-Azabicyclo[2.1.1]hex-1-yl)(phenyl)methyl]-6-chloro-2-methyl-3-(trifluoromethyl)-benzamide]"
5,146 to 147,"Cc1c(C(=O)NC(c2ccccc2)C23CC(CN2)C3)cccc1C(F)(F)F (racemic) [Compound 7, N-[(2-Azabicyclo[2.1.1]hex-1-yl)(phenyl)methyl]-2-methyl-3-(trifluoromethyl)-benzamide]"
6,139.5 to 140.5,"Cc1cccc(C(=O)NC(c2ccccc2)C23CC(CN2)C3)c1Cl (racemic) [Compound 12, N-[(2-Azabicyclo[2.1.1]hex-1-yl)(phenyl)methyl]-2-chloro-3-methylbenzamide]"
7,187 to 188,"O=C(NC(c1cccc(O)c1)C12CC(CN1)C2)c1cccc(C(F)(F)F)c1Cl (racemic) (as salt: HCl) [Compound 24, N-[(2-Azabicyclo[2.1.1]hex-1-yl)(3-hydroxyphenyl)methyl]-2-chloro-3-(trifluoromethyl)-benzamide]"
8,140 to 150,"O=C(NC(c1ccccc1)C12CC(CN1)C2)c1cccc(C(F)(F)F)c1Cl (single isomer, unassigned; (-)) (as salt: HCl) [Compound 13, (−)N-[(2-Azabicyclo[2.1.1]hex-1-yl)(phenyl)methyl]-2-chloro-3-(trifluoromethyl)-benzamide]"
9,162.5 to 163.5,Cl.O=C(NC(c1ccccc1)C12CC(CN1)C2)c1cc(C(F)(F)F)ccc1Cl (racemic)
